According to PubChem BioAssay (NCI):
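Where inhibition never reached the appropriate level, the endpoint shown equals the highest concentration tested. Otherwise, values were interpolated linearly from a five-concentration, 48-hour dose response in 96-well plates. At the GI50, growth is halved. At the TGI there is no net growth.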

Tests used:
Experiment in all cases: NCI-60 cell line screen, 48 h
HCT-15 colon = tested on: HCT-15 colon
MALME-3M melanoma = tested on: MALME-3M melanoma
NCI-H226 lung = tested on: NCI-H226 lung
NCI-H522 lung = tested on: NCI-H522 lung
SF-295 CNS = tested on: SF-295 CNS
SK-MEL-5 melanoma = tested on: SK-MEL-5 melanoma
SK-OV-3 ovarian = tested on: SK-OV-3 ovarian
SR leukemia = tested on: SR leukemia
SW-620 colon = tested on: SW-620 colon
HT29 colon = tested on: HT29 colon

SMILES	GI50 (HCT-15 colon) [µM]	TGI (HCT-15 colon) [µM]	GI50 (MALME-3M melanoma) [µM]	TGI (MALME-3M melanoma) [µM]	GI50 (NCI-H226 lung) [µM]	TGI (NCI-H226 lung) [µM]	GI50 (NCI-H522 lung) [µM]	TGI (NCI-H522 lung) [µM]	GI50 (SF-295 CNS) [µM]	TGI (SF-295 CNS) [µM]	GI50 (SK-MEL-5 melanoma) [µM]	TGI (SK-MEL-5 melanoma) [µM]	GI50 (SK-OV-3 ovarian) [µM]	TGI (SK-OV-3 ovarian) [µM]	GI50 (SR leukemia) [µM]	TGI (SR leukemia) [µM]	GI50 (SW-620 colon) [µM]	TGI (SW-620 colon) [µM]	GI50 (HT29 colon) [µM]	TGI (HT29 colon) [µM]
C=C1C(=O)O[C@H]2[C@H]1CC/C(COC(=O)CCCCC(=O)OC/C1=C/CC[C@@]3(C)O[C@H]3[C@H]3OC(=O)C(=C)[C@@H]3CC1)=C\CC[C@@]1(C)O[C@@H]21	1.73	4.2	2.1	5.66	1.9	4.36	1.76	3.57	6.32	> 100	2.6	7.73	33.4	> 100	0.584	> 100	1.17	2.78	–	–
CCOc1c(Br)cc(C2C(C(=O)OC)=CN(C)C=C2C(=O)OC)cc1OC	33.9	> 100	> 100	> 100	86.3	> 100	39.7	> 100	57.9	> 100	40.5	> 100	> 100	> 100	30.6	> 100	38.6	> 100	45.6	> 100
COC(=O)/C=C1/CCC2[C@@H](C(=O)CC3[C@]2(C)CCC[C@@]3(C)C(=O)OC)C1C (some centres undefined)	–	35.9	–	34.8	–	46.1	–	19.7	–	33.1	–	20.8	–	51.6	–	–	–	22.5	–	20.2
N#C/C(=C\c1ccc(-c2ccc(Cl)cc2)o1)C(=O)Nc1ncc(Cc2ccc(Cl)cc2)s1	2.3	> 100	–	–	2.08	5.41	1.94	4.86	2.84	8.73	2.51	7.41	3.24	9.52	0.772	6.48	–	–	3.42	> 100
Cn1c2ccccc2c(=S)c2ccccc21	–	> 100	–	–	–	> 100	–	> 100	–	> 100	–	> 100	–	> 100	–	> 100	–	> 100	–	> 100
CN(C)CCNC(=O)c1cc2ccccc2c2nc3ccccc3nc12	–	3.24	–	2.06	–	2.44	–	> 100	–	–	–	5.5	–	> 31.6	–	3.68	–	–	–	2.9
CS(=O)(=O)NNS(=O)(=O)c1cccc([N+](=O)[O-])c1	–	> 100	–	> 100	–	> 100	–	> 100	–	> 100	–	> 100	–	–	–	> 100	–	> 100	–	> 100
CC(=O)OC(/C=C1/C=CC(=O)O1)COC(=O)c1ccccc1 (centres undefined)	–	–	–	> 31.2	–	> 31.2	–	> 31.2	–	> 31.2	–	> 31.2	–	> 31.2	–	–	–	> 31.2	–	> 31.2
CCOC(=O)/C(O)=C(/c1n[nH]c(=O)c2ccccc12)[N+](=O)[O-]	–	> 100	–	> 100	–	> 100	–	> 100	–	> 100	–	> 100	–	> 100	–	–	–	> 100	–	> 100
O=c1cccccc1NCCOCCNc1cccccc1=O	–	> 100	–	> 100	–	> 100	–	> 100	–	> 100	–	> 100	–	> 100	–	–	–	> 100	–	> 100
Cc1ccc(NC(=O)CCC(CC(=O)C(C)(C)C)=NNC(=O)C(=O)NN)cc1C	–	> 100	–	> 100	–	> 100	–	> 100	–	> 100	–	> 100	–	> 100	–	–	–	> 100	–	> 100
Cc1cc2c(cc1Cl)SC1=CC(=O)N(c3ccccc3)C1=NS2(=O)=O	> 100	> 100	44.6	> 100	66.7	> 100	67.1	> 100	> 100	> 100	–	10.8	> 100	> 100	–	–	33.1	> 100	21.5	67.8
COc1cc2nc3sc(C(=O)Nc4ccc(C(=O)OC(C)C)cc4)c(C(=O)Nc4ccc(Cl)cc4C)n3c(=O)c2cc1OC	17.3	> 100	0.0691	2.44	16.6	43.4	–	–	11.2	29	6.08	> 100	23.3	70	3.05	14.1	1.88	25	3.18	> 100
O=[N+]([O-])c1ccc(Br)c([N+](=O)[O-])c1	1.93	4.59	1.96	4.18	8.36	23.5	0.163	0.355	2.38	5.96	2.3	5.64	8.37	20.6	1.56	5.64	1.83	4.13	–	–
O=S(=O)(O)O.[NH-]C1CCCCC1[NH-].[Pt+2] (centres undefined)	61.5	> 100	50.2	> 100	–	–	23.6	> 100	> 100	> 100	42.3	> 100	> 100	> 100	–	–	5.33	> 100	63.1	> 100
COc1ccc(-c2[nH]c3ccccc3c2C=C(C#N)C#N)cc1	0.587	> 100	0.874	> 100	0.873	> 20.1	0.798	10.3	0.331	6.3	–	–	0.434	5.89	–	–	0.435	> 100	0.371	> 100
